Measured values reported in PubChem BioAssay (NCI).
Values joined by “and” are separate entries in the source; they are usually repeats but may differ in a detail not shown here. Equal entries are not always repeated.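 Method: 48-hour compound exposure of cells in 96-well plates, five concentrations, linear interpolation of endpoints. GI50 = concentration required for 50% inhibition of growth. TGI: concentration producing complete growth inhibition.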

Columns and labels:
Experiment in all cases: DTP human tumour cell line panel, 48 h
BT-549 breast = system: BT-549 breast
CCRF-CEM leukemia = system: CCRF-CEM leukemia
HCT-15 colon = system: HCT-15 colon
HS 578T breast = system: HS 578T breast
LOX IMVI melanoma = system: LOX IMVI melanoma
M14 melanoma = system: M14 melanoma
NCI-H522 lung = system: NCI-H522 lung
PC-3 prostate = system: PC-3 prostate
RXF 393 renal = system: RXF 393 renal
SR leukemia = system: SR leukemia

Row | Structure (SMILES) | TGI (BT-549 breast) | TGI (CCRF-CEM leukemia) | TGI (HCT-15 colon) | TGI (HS 578T breast) | TGI (LOX IMVI melanoma) | TGI (M14 melanoma) | TGI (NCI-H522 lung) | TGI (PC-3 prostate) | TGI (RXF 393 renal) | TGI (SR leukemia) | GI50 (CCRF-CEM leukemia) | GI50 (HS 578T breast) | GI50 (NCI-H522 lung) | GI50 (PC-3 prostate) | GI50 (RXF 393 renal) | GI50 (SR leukemia) | GI50 (HCT-15 colon) | GI50 (BT-549 breast) | GI50 (M14 melanoma)
1 | O=c1[nH]c2cc([N+](=O)[O-])c(N/N=C/c3ccc(Cl)cc3Cl)c([N+](=O)[O-])c2[nH]1 | > 100 µM | > 100 µM | > 100 µM | > 100 µM | > 100 µM | > 100 µM | 94 µM | > 100 µM | 40.9 µM |  |  |  |  |  |  |  |  |  | 
2 | O=c1[nH]c(=O)n(CCOc2ccc(Cl)cc2)cc1Nc1ccccc1 |  | > 100 µM | > 100 µM | > 100 µM | > 100 µM | > 100 µM |  | > 100 µM | > 100 µM | > 100 µM |  |  |  |  |  |  |  |  | 
3 | C=C1CC2C3C=C(C)C4=CC(=O)CC[C@]4(C)C3CC[C@]2(C)[C@@]1(OC(C)=O)C(C)=O (some centres undefined) |  | > 100 µM |  | > 100 µM |  |  | > 100 µM | > 100 µM | > 100 µM | > 100 µM | 2.11 µM | 43.5 µM | 4.21 µM | 2.55 µM | 4.31 µM | 3.19 µM |  |  | 
4 | COc1ccc(N=Cc2ccc(N(CCC#N)S(=O)(=O)c3ccccc3)cc2C)cc1 |  | > 100 µM | > 100 µM |  |  | 71.5 µM | > 100 µM |  | > 100 µM | > 100 µM |  |  |  |  |  |  |  |  | 
5 | NC(=O)CCSC(CC(=O)c1ccc(Cl)cc1)c1ccc(Cl)cc1 (centres undefined) | 80 µM | 8.11 µM | 31.5 µM | > 100 µM | 25.5 µM | 83.3 µM | 80.3 µM | > 100 µM | 32.6 µM | 22.9 µM |  |  |  |  |  |  |  |  | 
6 | CCOC(=O)C12CC(C)=C(C)CC1CCCc1ccccc12 (centres undefined) | > 100 µM | 41.6 µM | 59.8 µM | > 100 µM | 30.8 µM | > 100 µM | 39.5 µM | 68.1 µM | 43.1 µM | 84.4 µM |  |  |  |  |  |  |  |  | 
7 | O=CN1CCC23CC(O)CCC2C1Cc1cc(Oc2nnnn2-c2ccccc2)cc(O)c13 (centres undefined) | > 100 µM | > 100 µM | > 100 µM | > 100 µM | > 100 µM | > 100 µM | > 100 µM | > 100 µM | > 100 µM | > 100 µM |  |  |  |  |  |  |  |  | 
8 | C[C@H]1CCC/C=C/[C@@H]2C[C@H](O)C[C@H]2[C@H](O)/C=C/C(=O)O1 |  | 5.53 µM |  | > 100 µM | 0.0412 µM and 0.0275 µM | 6.57 µM and 0.738 µM | 0.208 µM and 0.213 µM and 0.354 µM |  | 0.0481 µM and 0.053 µM and 0.0188 µM |  | < 0.0183 µM and 0.0501 µM and 0.0981 µM |  | 0.044 µM and 0.0952 µM and 0.115 µM | < 0.0202 µM and 0.0475 µM and 0.0478 µM |  | < 0.0146 µM and 0.0808 µM and 0.0415 µM | 0.104 µM |  | 
9 | CCC1CCC2c3c([nH]c4ccc(C)cc34)C3C(=O)N(N(C)C)C(=O)C3C2C1 (centres undefined) | > 100 µM | > 100 µM | > 100 µM | 33 µM | > 100 µM | > 100 µM | 2.68 µM | > 100 µM | 57.7 µM | 48.6 µM |  |  |  |  |  |  |  |  | 
10 | CCOC(=O)/C(=C\NC(C)(C)CO)c1nc2ccccc2[nH]1 | > 100 µM | > 100 µM | > 100 µM | 97.7 µM | > 100 µM | > 100 µM | > 100 µM |  | > 100 µM | > 100 µM |  |  |  |  |  |  |  |  | 
11 | CCCC[C@H]1C(=O)O[C@H](C)[C@H](NC(=O)c2cccc(NC=O)c2OC)C(=O)O[C@@H](C)[C@@H]1OC(=O)CC(C)C (tested in a mixture with another compound) | 40.1 µM | 24.4 µM | 51.2 µM | 63.1 µM | 23.2 µM | 46.6 µM | 21 µM | 32.6 µM | 34.6 µM | 50.5 µM |  |  |  |  |  |  |  |  | 
12 | O=c1[nH]c(=O)n(CCOCP(=O)(O)O)nc1Br | > 100 µM | > 100 µM | > 100 µM | > 100 µM | > 100 µM | > 100 µM | > 100 µM | > 100 µM | > 100 µM | > 100 µM |  |  |  |  |  |  |  |  | 
13 | N=C(N)c1ccc(N=Nc2c(O)ccc3cc4c(N=Nc5ccc(C(=N)N)cc5)c(O)ccc4cc23)cc1 | > 100 µM | > 100 µM | > 100 µM | > 100 µM |  | > 100 µM | > 100 µM | > 100 µM | > 100 µM | > 100 µM |  |  |  |  |  |  |  |  | 
14 | C/C(=C\C(=N\NC(=N)N)c1ccccc1)c1ccccc1 |  | 1.8 µM | 14.7 µM | 18.5 µM | 2.56 µM | 2.47 µM | 1.76 µM | 3.21 µM | 8.42 µM | 6.59 µM |  |  |  |  |  |  |  |  | 
15 | Cc1cn(Cc2cn(CC3OC(n4cc(C)c(=O)[nH]c4=O)CC3O)nn2)c(=O)[nH]c1=O (centres undefined) | > 100 µM | > 100 µM | > 100 µM | > 100 µM |  | > 100 µM |  | > 100 µM | > 100 µM |  |  |  |  |  |  |  |  |  | 
16 | COc1cccc(NC(=O)CC(=O)NN2C(=O)/C(=C/c3ccc(N(CCC#N)CCC#N)cc3)N=C2c2cc([N+](=O)[O-])ccc2Cl)c1 |  | > 100 µM | > 100 µM |  | > 100 µM | > 100 µM | > 100 µM |  | > 100 µM | > 100 µM |  |  |  |  |  |  |  |  | 
17 | C=C1c2nc3ccccc3n2C=C(c2ccc(Cl)cc2)N1c1ccc(OCCN2CCCCC2)cc1 | > 100 µM |  | > 45 µM |  | > 45 µM | > 100 µM | 45 µM | > 100 µM | > 100 µM |  | 0.226 µM |  |  | > 100 µM | > 100 µM | 0.0439 µM |  | > 100 µM | > 100 µM
18 | N#Cc1c(-c2ccc(Cl)cc2)c2c([nH]c1=O)-c1cc([N+](=O)[O-])ccc1CCC2 | 36.3 µM | > 100 µM | 47.6 µM | 99.2 µM | 37.9 µM | 73.4 µM | 41.8 µM | > 100 µM | 37.6 µM | > 100 µM |  |  |  |  |  |  |  |  | 
19 | O=C1[C@@H](O)[C@@H]2CCCC[C@@]23CCCN13 |  | > 100 µM | > 100 µM | > 100 µM | > 100 µM | > 100 µM | > 100 µM | > 100 µM | > 100 µM | > 100 µM |  |  |  |  |  |  |  |  | 
